Test results taken from ChEMBL document CHEMBL5236572, “Bioactive Aurones, Indanones, and Other Hemiindigoid Scaffolds: Medicinal Chemistry and Photopharmacology Perspectives” (J Med Chem, 2022).
Values after ≈ are worked out from the molar mass of the structure shown.

Experiments:
[1] = molecular target: Serine/threonine-protein kinase AKT (Homo sapiens, UniProt P31751+Q9Y243+P31749); assay: Inhibition of AKT (unknown origin) by FRET based Z'-LYTE assay; type: protein assay
[2] = tested on: Mycobacterium tuberculosis; assay: Antimicrobial activity against Mycobacterium tuberculosis assessed as reduction in bacterial growth by Alamar Blue fluorescence assay; type: functional, organism-based
[3] = Cytotoxicity against human HeLa cells assessed as reduction in cell viability; type: toxicity, cell-based
[4] = tested on: Trypanosoma brucei brucei; assay: Antitrypanosomal activity against Trypanosoma brucei brucei assessed as reduction in parasite viability by resorufin based fluorescence assay; type: functional, organism-based
[5] = Cytotoxicity against human HEK293T cells; type: toxicity, cell-based, HEK-293T
[6] = tested on: Mycobacterium tuberculosis; assay: Antimicrobial activity against Mycobacterium tuberculosis H37Rv assessed as reduction in bacterial growth incubated for 7 days by broth micro dilution method; type: functional; details: 168 h, time 7 day
[7] = Cytotoxicity against mouse Peritoneal macrophage incubated for 24 hrs by MTT assay; type: toxicity, cell-based; details: peritoneal macrophages
Schistosoma mansoni [8] = assay: Antischistosomal activity against adult stage of Schistosoma mansoni BH assessed assessed as inhibition of parasite death at 25 uM incubated for 24 hrs by light microscopy; type: functional
[9] = Cytotoxicity against mouse Peritoneal macrophage; type: toxicity, cell-based; details: peritoneal macrophages
Schistosoma mansoni [10] = assay: Antischistosomal activity against adult stage of Schistosoma mansoni assessed assessed as inhibition of parasite death; type: functional, organism-based
SH-SY5Y = assay: Cytotoxicity against human SH-SY5Y cells assessed as reduction in cell viability; type: functional, cell-based
NB-4 = assay: Cytotoxicity against human NB-4 cells assessed as reduction in cell viability; type: functional, cell-based
[11] = molecular target: T1, Amine oxidase [flavin-containing] B (Homo sapiens, UniProt P27338); assay: Inhibition of recombinant human MAO-B
T1 sequence (P27338 whole entry): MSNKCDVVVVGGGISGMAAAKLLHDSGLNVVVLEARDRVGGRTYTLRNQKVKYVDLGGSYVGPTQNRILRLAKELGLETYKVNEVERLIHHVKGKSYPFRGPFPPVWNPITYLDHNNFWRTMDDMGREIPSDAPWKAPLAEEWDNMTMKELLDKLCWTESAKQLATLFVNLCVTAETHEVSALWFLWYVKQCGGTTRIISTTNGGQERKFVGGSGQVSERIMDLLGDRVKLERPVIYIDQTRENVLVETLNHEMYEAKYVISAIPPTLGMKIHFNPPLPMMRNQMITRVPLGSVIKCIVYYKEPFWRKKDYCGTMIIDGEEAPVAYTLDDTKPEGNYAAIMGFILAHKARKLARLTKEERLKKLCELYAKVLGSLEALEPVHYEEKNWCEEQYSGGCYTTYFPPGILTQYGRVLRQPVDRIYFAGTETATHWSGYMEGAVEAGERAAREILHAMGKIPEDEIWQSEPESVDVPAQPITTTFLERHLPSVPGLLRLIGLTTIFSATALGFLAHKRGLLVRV

[12] = molecular target: T2, Amyloid-beta precursor protein (Homo sapiens, UniProt P05067); assay: Inhibition of self-induced amyloid beta (1 to 42) (unknown origin) disaggregation by ThT-based fluorometric assay
T2 sequence (P05067 whole entry): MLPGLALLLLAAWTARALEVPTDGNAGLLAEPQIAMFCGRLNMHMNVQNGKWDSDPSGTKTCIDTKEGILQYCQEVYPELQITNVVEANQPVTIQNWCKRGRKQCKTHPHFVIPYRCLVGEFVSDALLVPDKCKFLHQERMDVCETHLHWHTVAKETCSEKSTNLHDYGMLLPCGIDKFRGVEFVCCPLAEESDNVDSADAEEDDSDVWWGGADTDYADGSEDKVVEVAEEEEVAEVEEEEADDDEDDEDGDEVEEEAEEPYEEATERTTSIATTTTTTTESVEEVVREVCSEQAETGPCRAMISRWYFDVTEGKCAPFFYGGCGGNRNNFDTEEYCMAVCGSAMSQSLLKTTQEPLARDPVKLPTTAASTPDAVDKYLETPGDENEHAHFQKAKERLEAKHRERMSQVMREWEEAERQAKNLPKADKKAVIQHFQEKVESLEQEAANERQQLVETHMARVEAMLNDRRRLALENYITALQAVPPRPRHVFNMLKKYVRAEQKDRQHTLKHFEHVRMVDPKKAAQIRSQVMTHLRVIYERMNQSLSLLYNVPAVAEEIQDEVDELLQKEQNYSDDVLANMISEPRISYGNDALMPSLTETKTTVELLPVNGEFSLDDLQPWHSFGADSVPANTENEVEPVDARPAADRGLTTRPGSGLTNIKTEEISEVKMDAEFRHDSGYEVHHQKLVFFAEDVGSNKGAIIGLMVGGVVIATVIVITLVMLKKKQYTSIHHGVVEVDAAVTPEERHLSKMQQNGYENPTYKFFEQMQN

[13] = molecular target: T2, Amyloid-beta precursor protein; assay: Inhibition of amyloid beta (1 to 42) (unknown origin) self aggregation by ThT-based fluorometric assay
Pseudomonas aeruginosa = assay: Antimicrobial activity against Pseudomonas aeruginosa assessed as bacterial growth inhibition; type: functional
Aspergillus niger [14] = assay: Antifungal activity against Aspergillus niger assessed as reduction in fungal growth; type: functional
Staphylococcus aureus = assay: Antimicrobial activity against Staphylococcus aureus assessed as bacterial growth inhibition; type: functional
Aspergillus flavus [15] = assay: Antifungal activity against Aspergillus flavus assessed as reduction in fungal growth; type: functional
Aspergillus flavus [16] = assay: Antifungal activity against Aspergillus flavus assessed as reduction in fungal growth incubated for 24 hrs by disk diffusion assay; type: functional
Mucor mucedo = assay: Antifungal activity against Mucor mucedo assessed as reduction in fungal growth incubated for 24 hrs by disk diffusion assay; type: functional
Rhizopus arrhizus = assay: Antifungal activity against Rhizopus oryzae assessed as reduction in fungal growth incubated for 24 hrs by disk diffusion assay; type: functional
Aspergillus niger [17] = assay: Antifungal activity against Aspergillus niger assessed as reduction in fungal growth incubated for 24 hrs by disk diffusion assay; type: functional
Plasmodium berghei = assay: Antimalarial activity against liver stage transgenic Plasmodium berghei (PbGFP-Luccon) infected in human Huh-7 cells assessed as reduction in parasite load incubated for 48 hrs by firefly luciferase assay; type: functional, organism-based; details: Huh-7, 48 h
Plasmodium falciparum = assay: Antimalarial activity against chloroquine-resistant erythrocyte stage Plasmodium falciparum assessed as growth inhibition incubated for 72 hrs by SYBR Green I dye based fluorescence analysis; type: functional, organism-based
HEK-293T = assay: Cytotoxicity against human HEK293T cells assessed as reduction in cell viability incubated for 48 hrs by Alamar Blue assay; type: functional, cell-based
[18] = Binding affinity to Helicobacter pylori HTRA by SPR analysis
Homo sapiens = species: Homo sapiens; assay: Selectivity index, ratio of IC50 for inhibition of recombinant human MAO-A to IC50 for inhibition of recombinant human MAO-B
[19] = molecular target: T3, Amine oxidase [flavin-containing] A (Homo sapiens, UniProt P21397); assay: Inhibition of recombinant human MAO-A
T3 sequence (P21397 whole entry): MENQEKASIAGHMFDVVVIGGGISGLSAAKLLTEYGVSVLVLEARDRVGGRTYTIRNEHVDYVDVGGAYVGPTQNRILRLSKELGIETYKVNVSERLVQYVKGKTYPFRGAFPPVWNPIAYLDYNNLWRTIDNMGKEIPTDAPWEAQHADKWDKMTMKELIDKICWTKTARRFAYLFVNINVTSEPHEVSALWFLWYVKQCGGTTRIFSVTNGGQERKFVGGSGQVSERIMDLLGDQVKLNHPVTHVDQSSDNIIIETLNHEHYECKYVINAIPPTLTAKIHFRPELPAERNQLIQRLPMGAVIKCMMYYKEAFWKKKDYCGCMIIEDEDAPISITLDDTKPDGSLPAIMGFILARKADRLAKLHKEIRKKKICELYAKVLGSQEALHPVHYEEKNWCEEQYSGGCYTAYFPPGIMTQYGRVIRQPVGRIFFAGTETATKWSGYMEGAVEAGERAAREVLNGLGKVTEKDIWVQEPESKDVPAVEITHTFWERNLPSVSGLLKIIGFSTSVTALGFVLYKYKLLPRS

Cc1ccc2c(c1C)C(=O)/C(=C/c1ccccc1)C2 showed an IC50 [1] of 0.066 µM.
CCOc1ccc2c(c1)O/C(=C\c1cccc(OCC(=O)OC)c1)C2=O gave an IC50 [2] of 4.8 µM.
O=C1/C(=C/c2cccnc2Cl)Cc2ccccc21 gave a CC50 [3] greater than 100 µM and an IC50 [4] of 0.55 µM.
For CC(=O)N1/C(=C\c2ccc(-c3cnc4ccccc4c3)cc2)C(=O)c2ccccc21, the CC50 [5] was 0.019 µM, the MIC90 [6] was 0.65 µM (≈ 0.254 µg/mL) and the MIC99 [6] was 0.74 µM (≈ 0.289 µg/mL).
For O=C1/C(=C/c2cccs2)Oc2ccccc21, the CC50 at 24 h [7] was greater than 150 µM and the inhibition at 25 µM (Schistosoma mansoni [8]) was 50%.
With Cn1cc(/C=C2\Oc3ccccc3C2=O)c2ccccc21 the CC50 [9] was greater than 150 µM and the EC50 (Schistosoma mansoni [10]) was 34 µM.
With COc1ccc(/C=C2\Oc3c(ccc4c3C(=O)CC(C)(C)O4)C2=O)cc1 the IC50 (SH-SY5Y) was 3.4 µM and the IC50 (NB-4) was 4.8 µM.
In the case of COc1cc2c(cc1OC)C(=O)/C(=C/c1ccc([N+](=O)[O-])cc1)C2, the IC50 [11] is reported as 0.03 µM, the IC50 [12] is reported as 7.9 µM and the IC50 [13] is reported as 1.8 µM.
For Cc1ccc2c(c1)C(=O)/C(=C/c1coc3ccc(C)cc3c1=O)O2, the MIC (Pseudomonas aeruginosa) was 1.6 µM (≈ 0.509 µg/mL), the MIC (Aspergillus niger [14]) was 14 µM (≈ 4.46 µg/mL) and the MIC (Staphylococcus aureus) was 1.6 µM (≈ 0.509 µg/mL). The MIC (Aspergillus flavus [15]) was 14 µM (≈ 4.46 µg/mL).
With O=C1/C(=C/c2ccncc2)Cc2ccc3c(c21)CCO3 the MIC (Aspergillus flavus [16]) was 60 µM (≈ 15.8 µg/mL), the MIC (Mucor mucedo) was 60 µM (≈ 15.8 µg/mL) and the MIC (Rhizopus arrhizus) was 60 µM (≈ 15.8 µg/mL). For the same molecule, the MIC (Aspergillus niger [17]) was 60 µM (≈ 15.8 µg/mL).
With O=C1/C(=C/c2cccc(-c3ccc(C(F)(F)F)cc3)c2)Nc2ccccc21 the EC50 (Plasmodium berghei) was greater than 100 µM, the EC50 (Plasmodium falciparum) was 0.11 µM and the EC50 (HEK-293T) was 0.81 µM.
O=C(O)c1cc(-c2ccc(/C=C3\Sc4ccccc4C3=O)o2)ccc1Cl gave a Kd [18] of 12 µM.
With COc1cc2c(cc1OC)C(=O)/C(=C/c1ccc(N(C)C)cc1)C2 the IC50 [11] was 58 µM, the Ratio IC50 (Homo sapiens) was greater than 2500 and the IC50 [19] was 0.02 µM.
